Measurements taken from US20140315717A1 (priority 2006, published 2014).
Several values for one entry are separate records, joined by “and”; a condition that tells them apart may be missing. Equal values may be shown once. Read-outs that look alike come from different tables or passages of the source.

What was measured:
[1] = test system: PR-2, i.e., β-1,3-glucanase; test: Induction of PR-2 mRNA (northern blot) in DMO soybean after spraying; assay type: in vivo; details: for induction of PR2 at various rates: 0.25, 0.5 and 1 lb/acre, 24 hrs after treatment, two independent transgenic soybean lines, FIG. 2
Excerpt: (§1) Transgenic and control soybean seeds (cultivars Thorne, NE3001, A3525) were planted into 3.5-inch square plastic pots containing Redi-Earth™ (Scotts-Sierra Horticultural Products Co., Marysville, Ohio). The pots were placed on capillary matting in 35 inch×60 inch fiberglass watering trays for overhead and/or sub-irrigation for the duration of the test period so as to maintain optimum soil moisture for plant growth and were fertilized with Osmocote® (14-14-14 slow release; Scotts-Sierra Horticultural Products Co., Marysville, Ohio) at the rate of 100 gm/cu. ft. to sustain plant growth for the duration of greenhouse trials.
(§2) A 14 hour minimum photoperiod was provided with supplemental light at about 600 μE (micro-Einsteins) as needed. Trials were established in a randomized block design randomized by rate with 4 to 6 replications of each treatment.
(§3) All herbicide applications were made with the track sprayer using a Teejet® 9501E flat fan nozzle (Spraying Systems Co, Wheaton, Ill.) with air pressure set at a minimum of 24 psi (pounds per square inch), or 165 kpa (kilopascals)). The spray nozzle was kept at a height of about 16 inches above the top of plant material for spraying. The spray volume was 10 gallons per acre or 93 liters per hectare. Applications were made when plants had reached V-3 stage.
Leaf samples were harvested after 0, 3, 8, 24, 48, 72 hrs after treatment (HAT) and frozen for further analysis. […] RNA was extracted and analyzed by northern blot analysis using PR-2, i.e., β-1,3-glucanase as a probe.

Pythium ultimum = Pythium ultimum inoculation of sprayed cotton seedlings; assay type: in vivo; details: cotton plants contacted with 3,6-DCSA; untreated plants are killed
Description: Ten-day old Roundup Ready® Flex Cotton (Event MON 88913; U.S. Publ. 20060059590) seedlings were sprayed with a mixture of Roundup Weather Max® (Monsanto, St. Louis, Mo.) and 3,6-DCSA (BASF). The control plants were sprayed with water only. The cotton seedlings from both treatments were inoculated with Pythium ultimum by dipping seedling into inoculum slurry, 24 hours after the spray application. The positive control plants were neither sprayed nor inoculated with P. P. ultimum. […] Cotton plants treated with Roundup® and DCSA were as healthy as were the plants not inoculated with P. ultimum.

[2] = test system: Xanthomonas campestris pv. malvacearum; test: Bacterial blight tooth pick inoculation of sprayed cotton plants; assay type: in vivo; details: two-week old cotton, DCSA sprayed about 24 hours before inoculation, FIG. 4
Description: In this example, two-week old cotton plants were sprayed with DCSA while control plants received spray application of water only. The plants were inoculated with bacterial blight pathogen (Xanthomonas campestris pv. malvacearum) about 24 hours after the DCSA spray application using a tooth pick inoculation method. As shown in the FIG. 4, the cotton plants inoculated with the bacterial pathogen but not sprayed with DCSA developed necrotic spots, typical symptoms of bacterial blight. […] The results of this experiment indicate that DCSA application reduced bacterial infection on cotton plants when inoculated with bacterial pathogen 24 hours after the DCSA spray.

soybean plants = assay type: in vivo
Excerpt: as §1, §2, §3
For this example, the plants were grown as described in the above example. Transgenic and non transgenic soybean plants carrying the DMO gene in their genome were either treated with Paraquat (Gramoxone®; Syngenta) to create oxidative stress or with dicamba followed by Paraquat at V3 stage. The dicamba rate was 1 lb/acre or 1120 g ae/ha. Paraquat was applied at 30, 70, or 200 g ae/ha. Plants were then evaluated for paraquat injury by visually assessing injury at a particular day after treatment (DAT) for injury on a scale of 0 to 100 percent relative to untreated control plants, with zero representing “no” injury and 100% representing “complete” injury or death. Data were collected and analyzed using suitable statistical methods.
In another experiment, the effect of externally applied DCSA was tested for its benefit in protecting soybean plants from oxidative stress injury caused by Paraquat. Different amounts of DCSA were applied 24 hrs before applying Paraquat to test any correlation between the amount of DCSA applied and the extent of protection obtained from oxidative stress measured in terms of reduction in % injury as described above. Different levels of dicamba were also applied separately to test the same hypothesis.

cotton plants = test: Paraquat (Gramoxone) oxidative stress injury in cotton, visual % injury; assay type: in vivo; details: for Percentage injury: 2 DAT, DCSA where applied 1 lb/acre 24 hours before
Description: Four different cotton cultivars as indicated in Table 3 were grown in 4-inch pots for two weeks. These cotton plants were either sprayed with DCSA (BASF) at the 1 lb/A rate, or unsprayed (no DCSA application, as control). Experimental plants (treated with DCSA and untreated) were sprayed with Paraquat (Gramoxone®; Syngenta) at 30 gm/ha, 70 gm/ha, and 100 gm/ha rates, 24 hours after the application of DCSA, to simulate oxidative stress. […] The same experiment was repeated at two different growth stages of cotton (2 nodes stage and 5 nodes stage).

[3] = test system: Root Knot Nematode (RKN; Meloidogyne incognita); test: Control of cotton root knot nematode in cotton plants (ST474); assay type: in vivo; details: RKN + DCSA
Description: DCSA was unexpectedly found to control gall formation, improve plant height and reduce number of eggs produced by the nematode in cotton plants (ST474) (Table 5). Ten to fourteen days old cotton plants were treated with DCSA at the rate of […], 24 hrs before inoculating them with RKN eggs. […] Plant height, gall rating, and egg counts were measured 45 days after inoculation. The gall rating scale was 0-5 with 0=no visible galling and 5=heavy galling.

Verticillium dahliae = test: Protection of cotton against Verticillium wilt, seedling dipping inoculation; assay type: in vivo; details: for Plant survival rating (out of 10) / Severity rating (1-9): cotton ST6611, DCSA 1 lb/A, glyphosate 0.75 lb/A 24 hours before inoculation; for Severity rating (1-9): 1 healthy, 9 dead
Excerpt: DCSA was unexpectedly found to provide protection to cotton plants against Verticillium dahliae, causal agent of cotton wilt disease (Table 6). Cotton plants of the variety ST6611, BOLLGARD 2, ROUNDUP READY FLEX, were inoculated with a moderate isolate (DPL) or a virulent isolate (King) of Verticillium by a seedling dipping method. Seedlings at the first true leaf stage were taken out from the pots, one inch of roots were cut off, seedlings were dipped in a spore slurry for one minute, and then transplanted back in the pots. These strains were isolated and provided by Dr. Terry Wheeler (Texas A&M University, TX USA). DCSA was applied at the rate of 1 lb/A and glyphosate (ROUNDUP WEATHERMAX, Monsanto) at the rate of 0.75 lb/A 24 hours before inoculation. Protection against Verticillium was measured on a disease severity scale of 1-9: 1 being healthy and 9 being dead because of disease, and also was measured as the number of plants that survived out of 10 inoculated plants.

soybean = details: DMO transgenic soybean, dicamba 1.5 lb ae/acre Pre and/or Post (V3-4), in 4/5 events and 13/15 treatments, FIG. 6
Description: The yield enhancing-benefit of DSCA was tested by growing non-transgenic and transgenic plants and applying dicamba to transgenic plants and harvesting the seeds. Non-transgenic and transgenic soybean seeds were planted near the beginning of the growing season in several locations at the time of best possible growth conditions such as soil moisture, temperature, and seeding depth. […] In all, 240 plots were planted at 6 locations (40 per location).
Four non-transgenic border rows were planted all around the trial using a known commercial line such as A3525. Optimum production and management practices known in the art were followed. Maximum pest control and disease control was practiced as needed to prevent confounding effects of dicamba applications. The field was irrigated as needed according to standard practices.

[4] = individual cotton plants 1-8, DCSA 24 hrs before inoculation, 45 days after inoculation
[5] = Verticillium isolate DPL (moderate)
[6] = Verticillium isolate King (virulent)

O=C(O)c1c(Cl)ccc(Cl)c1O [DCSA, 3,6-dichloro salicylic acid]
induction of PR2 at various rates [1]: induction of PR2
survival of cotton plants after inoculation with Pythium ultimum (Pythium ultimum): survive inoculation
bacterial blight symptoms [2]: only localized lesions (HR response) and no increase in bacterial blight symptoms
% injury at 5 DAT (soybean plants; event 469-13-19, 280 g/ha of Dicamba or DCSA followed by 100 g ae/ha of paraquat): 50.83%
% injury at 5 DAT (soybean plants; event 469-13-19, 561 g/ha of Dicamba or DCSA followed by 100 g ae/ha of paraquat): 48.33%
% injury at 5 DAT (soybean plants; event 469-13-19, 1120 g/ha of Dicamba or DCSA followed by 100 g ae/ha of paraquat): 43.33%
% injury at 5 DAT (soybean plants; in vivo): 66.67% and 53.33% and 49.17%
protection against oxidative stress caused by subsequently applied paraquat (soybean plants; transgenic soybean, applied 24 hrs before Paraquat, reduction in injury increased with rate): provided protection against oxidative stress
Gramoxone injury (cotton plants; four varieties of RR cotton pretreated with DCSA (24 hours), two nodes stage and 5 nodes stage): reduced significantly
RKN Gall Rating (0-5) ([3]; individual cotton plants 1-8, 45 days after inoculation, 0=no visible galling, 5=heavy galling): 0 (4×) and 2 and 1 (3×)
Egg Count/pot [3, 4]: 5,200 and 1,800 and 2,200
Plant Height [3, 4]: 25.4 cm (3×) and 22.2 cm and 17.8 cm and 14.0 cm and 15.9 cm and 12.7 cm
Plant Height, Mean ([3]; mean of 8 cotton plants, 45 days after inoculation): 19.8 cm
RKN Gall Rating (0-5), Mean ([3]; mean of 8 cotton plants, 45 days after inoculation, 0=no visible galling, 5=heavy galling): 0.6
Plant survival rating (out of 10) (Verticillium dahliae; [5]): 10
Severity rating (1-9) (Verticillium dahliae; [5]): 1
Plant survival rating (out of 10) (Verticillium dahliae; [6]): 10
Severity rating (1-9) (Verticillium dahliae; [6]): 2
protection against Verticillium (Verticillium dahliae; cotton, isolates DPL and King, DCSA 1 lb/A 24 hours before inoculation): provided protection against both moderate and strong isolates of Verticillium dahliae

COc1c(Cl)ccc(Cl)c1C(=O)O [Dicamba, 3,6-dichloro-2-methoxybenzoic acid]
induction of PR2 at various rates [1]: induction of PR2
induction of PR2 at various time points ([1]; DMO soybean, dicamba (Clarity) 1 lb/acre at Post-V3, leaf samples 0-72 HAT, FIG. 1): induction of PR2
% injury at 5 DAT (soybean plants; in vivo): 65.00% and 54.17% and 45.83% and 51.67% and 40.83%
Paraquat injury (soybean plants; in vivo): significantly reduced Paraquat injury
protection against oxidative stress caused by subsequently applied paraquat (soybean plants; in vivo): provided protection against oxidative stress
yield relative to unsprayed controls (soybean): an increase or equivalent yield to unsprayed controls

O=C(O)CNCP(=O)(O)O [Glyphosate, N-phosphonomethylglycine, reference compound]
Plant survival rating (out of 10) (Verticillium dahliae; [5]): 10
Severity rating (1-9) (Verticillium dahliae; [5]): 2
Plant survival rating (out of 10) (Verticillium dahliae; [6]): 10
Severity rating (1-9) (Verticillium dahliae; [6]): 3.5

C[n+]1ccc(-c2cc[n+](C)cc2)cc1 [Paraquat]
% injury (soybean plants; N3001 (non-transgenic) soybean, paraquat 200 g ae/ha, V-3 stage, 4 DAT): 75%
% injury at 5 DAT Paraquat alone control (soybean plants; transgenic event 462-1-21, paraquat 100 g ae/ha alone): 75.83%
% injury at 5 DAT Paraquat alone control (soybean plants; transgenic event 469-13-19, paraquat 100 g ae/ha alone): 77.50%
injury rate (soybean plants; transgenic soybean plants contacted with Paraquat alone): about 75%
Percentage injury (cotton plants; cotton ST3273B2RF, Gramoxone 30 g a.i./ha): 35%
Percentage injury (cotton plants; cotton ST3273B2RF, Gramoxone 70 g a.i./ha): 50%
Percentage injury (cotton plants; cotton ST3273B2RF, Gramoxone 100 g a.i./ha): 50%
Percentage injury (cotton plants; cotton ST4575BR, Gramoxone 100 g a.i./ha): 65%
Percentage injury (cotton plants; cotton ST4646B2RF, Gramoxone 100 g a.i./ha): 70%
Percentage injury (cotton plants; cotton ST6622RF, Gramoxone 70 g a.i./ha): 50%
Percentage injury (cotton plants; cotton ST6622RF, Gramoxone 100 g a.i./ha): 70%
